Measurements as given in ChEMBL document CHEMBL5113380, “Functionalized quinoxalinones as privileged structures with broad-ranging pharmacological activities” (Eur J Med Chem, 2022).
≈ marks a conversion by molar mass, not a printed value.

Columns and labels:
Escherichia coli [1] = test: Antibacterial activity against Escherichia coli; type: functional
Enterococcus faecalis = test: Antibacterial activity against Enterococcus faecalis; type: functional
Staphylococcus aureus [2] = test: Antibacterial activity against Staphylococcus aureus; type: functional
Klebsiella pneumoniae = test: Antibacterial activity against Klebsiella pneumoniae; type: functional
[3] = tested on: Mycobacterium tuberculosis; test: Antimycobacterial activity against Mycobacterium tuberculosis H37Rv; type: functional
Aspergillus fumigatus = test: Antifungal activity against Aspergillus fumigatus; type: functional
Candida albicans = test: Antifungal activity against Candida albicans; type: functional
Staphylococcus aureus [4] = test: Antibacterial activity against methicillin-resistant Staphylococcus aureus; type: functional
[5] = Antioxidant activity assessed as DPPH radical scavenging activity; type: functional
Pseudomonas aeruginosa = test: Antibacterial activity against Pseudomonas aeruginosa; type: functional
[6] = Antioxidant activity assessed as NO radical scavenging activity; type: functional
[7] = Antioxidant activity assessed as H2O2 radical scavenging activity; type: functional
Pyricularia grisea [8] = test: Antifungal activity against Magnaporthe grisea GD08-T19 at 50 ug/ml; type: functional; details: dose 50 µg/ml
Pyricularia grisea [9] = test: Antifungal activity against Magnaporthe grisea GD08-T19 assessed as diameter zone of inhibition; type: functional
A549 = test: Antiproliferative activity against human A549 cells; type: functional, cell-based
MRC5 = test: Antiproliferative activity against human MRC5 cells; type: functional, cell-based
HeLa = test: Antiproliferative activity against human HeLa cells; type: functional, cell-based
LS174T = test: Antiproliferative activity against human LS174T cells; type: functional, cell-based
Pichia kudriavzevii = test: Antifungal activity against Candida krusei; type: functional
Nakaseomyces glabratus = test: Antifungal activity against Candida glabrata; type: functional
Candida [10] = test: Antifungal activity against Candida species isolate 1; type: functional
Candida [11] = test: Antifungal activity against Candida species isolate 3; type: functional
Candida tropicalis = test: Antifungal activity against Candida tropicalis; type: functional
Candida [12] = test: Antifungal activity against Candida species isolate 2; type: functional
Candida parapsilosis = test: Antifungal activity against Candida parapsilosis; type: functional; details: Lodderomyces parapsilosis
[13] = Displacement of [3H]glycine from AMPA receptor (unknown origin); type: protein-complex assay, Homo sapiens
[14] = biological target: Glutamate [NMDA] receptor; test: Displacement of [3H]MK-801 from NMDA receptor (unknown origin); type: protein-complex assay, Homo sapiens
[15] = biological target: T1, Glutamate receptor ionotropic AMPA (Homo sapiens, UniProt P42261+P42262+P42263+P48058); test: Displacement of [3H]AMPA from AMPA receptor (unknown origin); type: protein-complex assay
[16] = Inhibition of cGMP-dependent 3',5'-cyclic phosphodiesterase (unknown origin); set-up: species or system Homo sapiens
[17] = biological target: 3',5'-cyclic phosphodiesterase; test: Inhibition of cAMP-specific 3',5'-cyclic phosphodiesterase (unknown origin); type: protein assay, Homo sapiens
Mesenteric vein = test: Vasorelaxant activity in dog mesenteric veins; type: functional, tissue-based; details: Canis lupus familiaris
Coronary artery = test: Vasorelaxant activity in dog coronary arteries; type: functional, tissue-based; details: Canis lupus familiaris
Papillary muscle = test: Positive inotropic activity in ferret papillary muscle assessed as contractile force measured as CFC20; type: functional, Mustela putorius furo
[18] = biological target: T1, Glutamate receptor ionotropic AMPA; test: Displacement of [3H]kainic acid from AMPA receptor (unknown origin); type: protein-complex assay
B16-F10 = test: Antiproliferative activity against mouse B16-F10 cells after 72 hrs by MTT assay; type: functional, cell-based; details: B16-F10, 72 h
HCT-116 = test: Antiproliferative activity against human HCT-116 cells after 72 hrs by MTT assay; type: functional, cell-based; details: HCT-116, 72 h
NCI-H460 = test: Antiproliferative activity against human NCI-H460 cells after 72 hrs by MTT assay; type: functional, cell-based; details: NCI-H460, 72 h
HeLa 229 = test: Antiproliferative activity against human HeLa 229 cells after 72 hrs by MTT assay; type: functional, cell-based; details: HeLa 229, 72 h
Alpha amylase = biological target: T2, Alpha amylase (Homo sapiens, UniProt P0DUB6); test: Inhibition of alpha-amylase (unknown origin)
T2 sequence (P0DUB6 whole entry): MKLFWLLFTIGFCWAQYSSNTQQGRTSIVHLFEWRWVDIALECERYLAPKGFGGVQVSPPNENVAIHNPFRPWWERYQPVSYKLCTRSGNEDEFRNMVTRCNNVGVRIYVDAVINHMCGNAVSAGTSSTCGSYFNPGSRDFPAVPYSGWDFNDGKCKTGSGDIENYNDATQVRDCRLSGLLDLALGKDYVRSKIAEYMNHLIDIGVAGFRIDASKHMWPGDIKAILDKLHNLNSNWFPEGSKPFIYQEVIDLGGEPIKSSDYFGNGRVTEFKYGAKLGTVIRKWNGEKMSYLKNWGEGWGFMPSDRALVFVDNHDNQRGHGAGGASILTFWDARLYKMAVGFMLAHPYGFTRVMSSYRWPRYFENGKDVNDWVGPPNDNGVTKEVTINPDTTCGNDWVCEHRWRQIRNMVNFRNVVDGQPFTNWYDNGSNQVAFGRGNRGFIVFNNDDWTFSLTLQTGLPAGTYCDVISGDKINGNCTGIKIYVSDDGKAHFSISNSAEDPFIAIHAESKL

Escherichia coli [19] = test: Antibacterial activity against Escherichia coli assessed as diameter zone of inhibition; type: functional
Staphylococcus aureus [20] = test: Antibacterial activity against Staphylococcus aureus assessed as diameter zone of inhibition; type: functional
Bacillus subtilis = test: Antibacterial activity against Bacillus subtilis assessed as diameter zone of inhibition; type: functional

SMILES: C/C(=N\NC(=O)Cn1c(=O)c(C)nc2ccccc21)c1cccnc1
- MIC (Escherichia coli [1]): 125 µg/mL (≈ 373 µM)
- MIC (Enterococcus faecalis): 16.1 µg/mL (≈ 47.9 µM)
- MIC (Staphylococcus aureus [2]): 250 µg/mL (≈ 745 µM)
- MIC (Klebsiella pneumoniae): 125 µg/mL (≈ 373 µM)
- MIC [3]: 25 µg/mL (≈ 74.5 µM)
- MIC (Aspergillus fumigatus): 8.06 µg/mL (≈ 24 µM)
- MIC (Candida albicans): 16.1 µg/mL (≈ 47.9 µM)

SMILES: O=C1CSC(c2ccc(F)cc2)N1c1ccc2nc(Cc3ccc(O)cc3)c(=O)[nH]c2c1 (stereo not given)
- MBC (Escherichia coli [1]): 32.6 µM (≈ 14.6 µg/mL)
- MBC (Staphylococcus aureus [2]): 43.5 µM (≈ 19.5 µg/mL)
- MBC (Klebsiella pneumoniae): 87 µM (≈ 38.9 µg/mL)
- MBC (Staphylococcus aureus [4]): 87 µM (≈ 38.9 µg/mL)
- IC50 ([5]; read-out: IC50): 239 µM
- MBC (Candida albicans): 65.2 µM (≈ 29.2 µg/mL)
- MBC (Pseudomonas aeruginosa): 21.7 µM (≈ 9.71 µg/mL)

SMILES: Cc1ccc(-n2cc(COc3ccc(/C=N/NC(=O)Cn4c(=O)c(C)nc5ccccc54)cc3)nn2)cc1
- IC50 [6]: 48.07 µg/mL (≈ 94.7 µM)
- IC50 [7]: 52.08 µg/mL (≈ 103 µM)
- IC50 [5]: 26.04 µg/mL

SMILES: Cn1c(=O)c(C(CCCOc2cc(=O)oc3ccccc23)CC(F)(F)F)nc2ccccc21 (stereo not given)
- Activity (Pyricularia grisea [8]): 23%
- diameter of the inhibition zone (DIZ) (Pyricularia grisea [9]): 48 mm

SMILES: O=C(/C=C/c1ccccc1)/C=C1/Nc2ccccc2NC1=O
- IC50 (A549): 22.6 µM
- IC50 (MRC5): 174 µM
- IC50 (HeLa): 16.6 µM
- IC50 (LS174T): 19.1 µM

SMILES: O=c1[nH]c2cc(F)c(F)cc2nc1CBr
- MIC (Pichia kudriavzevii): 125 µg/mL (≈ 454 µM)
- MIC (Nakaseomyces glabratus): 125 µg/mL (≈ 454 µM)
- MIC (Staphylococcus aureus [2]): 125 µg/mL (≈ 454 µM)
- MIC (Candida [10]): 62.5 µg/mL (≈ 227 µM)
- MIC (Candida [11]): 500 µg/mL (≈ 1820 µM)
- MIC (Candida tropicalis): 500 µg/mL (≈ 1820 µM)
- MIC (Candida [12]): 125 µg/mL (≈ 454 µM)
- MIC (Candida parapsilosis): 62.5 µg/mL (≈ 227 µM)
- MIC (Candida albicans): 31.2 µg/mL (≈ 113 µM)

SMILES: Cc1ccc(S(=O)(=O)NCCCC(CC(F)(F)F)c2nc3ccccc3n(C)c2=O)cc1 (stereo not given)
- Activity (Pyricularia grisea [8]): 23%
- diameter of the inhibition zone (DIZ) (Pyricularia grisea [9]): 47 mm

SMILES: COc1ccc(C(=O)/C=C2/Nc3ccccc3NC2=O)cc1
- IC50 (A549): 66.9 µM
- IC50 (MRC5): 190 µM
- IC50 (HeLa): 15.2 µM
- IC50 (LS174T): 24.3 µM

SMILES: Cc1nc2ccccc2n(CC(=O)N/N=C/c2ccc(OCCn3cc(CN4CCCC4)nn3)cc2)c1=O
- IC50 [6]: 53.19 µg/mL (≈ 103 µM)
- IC50 [7]: 56.81 µg/mL (≈ 110 µM)
- IC50 [5]: 27.17 µg/mL

SMILES: O=C(O)c1nc2c(=O)[nH]c3cc(Cl)c(Cl)cc3n2n1
- Ki [13]: 0.074 µM
- EC50 [14]: 0.3 µM
- Ki [15]: 1.3 µM

SMILES: CCc1nccn1-c1ncnc2c1nc(O)c1cnc(CC)n12
- IC50 [16]: 14 µM
- IC50 [17]: > 100 µM
- EC50 (Mesenteric vein): 23 µM
- EC50 (Coronary artery): 59 µM
- Activity (Papillary muscle): >100 µM

SMILES: COc1ccc(/C(C)=N/NC(=O)Cn2c(=O)c(C)nc3ccccc32)cc1
- MIC (Escherichia coli [1]): 125 µg/mL (≈ 343 µM)
- MIC (Enterococcus faecalis): 131 µg/mL (≈ 360 µM)
- MIC (Staphylococcus aureus [2]): 62.5 µg/mL (≈ 172 µM)
- MIC (Klebsiella pneumoniae): 125 µg/mL (≈ 343 µM)
- MIC [3]: 25 µg/mL (≈ 68.6 µM)
- MIC (Aspergillus fumigatus): 8.06 µg/mL (≈ 22.1 µM)
- MIC (Candida albicans): 250 µg/mL (≈ 686 µM)

SMILES: C=C(C)CCC(=O)/C=C1/Nc2ccccc2NC1=O
- IC50 (A549): 86.2 µM
- IC50 (MRC5): 174 µM
- IC50 (HeLa): 25.1 µM
- IC50 (LS174T): 33.5 µM

SMILES: O=C(O)c1cc2c3cc(Cl)c(Cl)cc3[nH]c(=O)n2n1
- Ki [13]: 0.16 µM
- IC50 [14]: 0.89 µM
- IC50 [18]: 41 µM
- Ki [15]: 2.4 µM

SMILES: O=c1[nH]c2ccc(C(F)(F)F)cc2nc1C(F)(F)F
- MIC (Pichia kudriavzevii): 250 µg/mL (≈ 886 µM)
- MIC (Nakaseomyces glabratus): 250 µg/mL (≈ 886 µM)
- MIC (Candida [10]): 125 µg/mL (≈ 443 µM)
- MIC (Candida [11]): 125 µg/mL (≈ 443 µM)
- MIC (Candida tropicalis): 250 µg/mL (≈ 886 µM)
- MIC (Candida [12]): 125 µg/mL (≈ 443 µM)
- MIC (Candida parapsilosis): 125 µg/mL (≈ 443 µM)
- MIC (Candida albicans): 8 µg/mL (≈ 28.4 µM)

SMILES: O=c1[nH]c2ccccc2nc1/C=C/c1ccccc1Br
- IC50 (B16-F10): 7.61 µM
- IC50 (HCT-116): 12.3 µM
- IC50 (NCI-H460): 9.62 µM
- IC50 (HeLa 229): > 50 µM

SMILES: COc1ccc(C2SCC(=O)N2c2ccc3nc(Cc4ccc(O)cc4)c(=O)[nH]c3c2)cc1 (stereo not given)
- MBC (Escherichia coli [1]): 21.2 µM (≈ 9.74 µg/mL)
- IC50 (Alpha amylase): 301.59 µM
- MBC (Staphylococcus aureus [2]): 15.9 µM (≈ 7.31 µg/mL)
- MBC (Staphylococcus aureus [4]): 63.8 µM (≈ 29.3 µg/mL)
- IC50 ([5]; read-out: IC50): 19.6 µM
- MBC (Candida albicans): 85 µM (≈ 39.1 µg/mL)
- MBC (Pseudomonas aeruginosa): 680 µM (≈ 313 µg/mL)

SMILES: O=C(CC1=NC2CCCCC2NC1=O)NNC(=S)Nc1ccccc1 (stereo not given)
- diameter of the inhibition zone (DIZ) (Escherichia coli [19]): 12 mm
- diameter of the inhibition zone (DIZ) (Staphylococcus aureus [20]): 16 mm
- diameter of the inhibition zone (DIZ) (Bacillus subtilis): 18 mm

SMILES: COc1ccc(C(=O)Nc2cccc(C(=O)/C=C3/Nc4ccccc4NC3=O)c2)cc1
- IC50 (A549): 40.4 µM
- IC50 (MRC5): 182 µM
- IC50 (HeLa): 10.5 µM
- IC50 (LS174T): 16.8 µM
